How the values were obtained:
[1] = system: HS-PSS; assay: drug sensitivity score (DSS, CellTiter-Glo viability, 72 h) (DSS (dimensionless)); higher = more sensitive; extreme values may be limits of the assay
Procedure, shortened: (§1)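 After seeding 750–1000 cells per well of MPNST cell lines or primary human Schwann cells into 384-well plates preprinted with each compound at five concentrations in 10-fold steps, plates were kept 72 h at 37 °C, 5% CO2. Viability was read as CellTiter-Glo ATP luminescence relative to vehicle and positive-control wells, with duplicates averaged where present. The data were fitted with four-parameter logistic models. Drug sensitivity score and relative IC50, censored at the top concentration, derive from the fits, and percent inhibition refers to the top concentration.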

[2] = system: HS-Sch-2; assay: as above
Procedure, shortened: as §1

[3] = system: YST-1; assay: as above
Procedure, shortened: as §1

[4] = system: HS-PSS; assay: drug sensitivity score (DSS, CellTox-Green cytotoxicity, 72 h) (DSS (dimensionless)); higher = more cytotoxic; extreme values may be limits of the assay
Procedure, shortened: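 For 72 h at 37 °C, MPNST cell lines and primary human Schwann cells were exposed in 384-well plates to five 10-fold compound dilutions. CellTox-Green, added before seeding at a final 1:1000 dilution, gave fluorescence from DNA released by disrupted cells. Signals were scaled to vehicle and positive-control wells, cultures failing plate quality control were left out, and four-parameter logistic fits were applied. Relative IC50 and drug sensitivity score were derived from the fits, with IC50 censored at the top concentration.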

[5] = system: HS-PSS; assay: % inhibition of CellTiter-Glo viability at highest tested concentration (72 h), relative to DMSO and benzethonium chloride controls; higher = more inhibition
Procedure, shortened: as §1

[6] = system: HS-Sch-2; assay: as above
Procedure, shortened: as §1

[7] = system: YST-1; assay: as above
Procedure, shortened: as §1

Row | Structure (SMILES) | drug sensitivity score [1] | drug sensitivity score [2] | drug sensitivity score [3] | drug sensitivity score [4] | % inhibition [5] [%] | % inhibition [6] [%] | % inhibition [7] [%]
1 | CS(=O)(=O)N1CCc2c(-c3cnc(N)nc3)nc(N3CCOCC3)nc21 (max concentration tested 10000 nM) | 4.81 | 3.35 | 14.4 | 0 | 42.7 | 32 | 77.8
2 | CC[C@H](C)C(=O)O[C@H]1C[C@H](O)C=C2C=C[C@H](C)[C@H](CC[C@@H](O)C[C@@H](O)CC(=O)O)[C@H]21 [Pravastatin] (max concentration tested 10000 nM) | 1.44 | 0 | 0 | 0 | 24.1 | -3.68 | 0.31
3 | Nc1cc(F)ccc1NC(=O)/C=C/c1cnn(C/C=C/c2ccccc2)c1 [RGFP966] (max concentration tested 10000 nM) | 4.21 | 4.52 | 5.15 | 0 | 33.2 | 52.7 | 55.7
4 | CCN1CCN(Cc2ccc(Nc3ncc(F)c(-c4cc(F)c5nc(C)n(C(C)C)c5c4)n3)nc2)CC1 [Abemaciclib] (max concentration tested 2500 nM) | 1.78 | 1.05 | 6.03 | 0.89 | 22 | 31.6 | 28.3
5 | COc1ccc(-c2nc(N3CCOCC3)c3sc(CN(C)c4ncc(C(=O)NO)cn4)cc3n2)cn1 [CUDC-907] (max concentration tested 10000 nM) | 31.6 | 31.9 | 40.4 | 19.2 | 98.6 | 99.5 | 100
6 | Cn1ncc(Cl)c1-c1cc(C(=O)N[C@H](CN)Cc2ccc(F)c(F)c2)oc1Cl [Uprosertib] (max concentration tested 10000 nM) | 0 | 0 | 3.04 | 0 | 9.97 | 6.41 | 21.9
7 | CCn1cc(-c2ccnc3[nH]c(-c4cccc(CN(C)C)c4)cc23)c(-c2ccc(NC(=O)N(C)C)cc2)n1 (max concentration tested 1000 nM) | 4.28 | 4.77 | 10.8 | 0 | 46.2 | 54 | 33.4
8 | CC[C@@]1(O)C(=O)OCc2c1cc1n(c2=O)Cc2cc3ccccc3nc2-1 [Camptothecin] (max concentration tested 5000 nM) | 14.9 | 22.2 | 23.6 | 10.2 | 93.1 | 99.9 | 99.6
9 | C=CC(=O)Nc1cc(Nc2nccc(-c3cn(C)c4ccccc34)n2)c(OC)cc1N(C)CCN(C)C [Osimertinib] (max concentration tested 2500 nM) | 5.5 | 4.21 | 6.9 | 0.95 | 66.3 | 73.2 | 63.7
10 | COC(=O)c1ccc2c(c1)[nH]c1ncnc(NCCCN3CCCCC3)c12 [UM729] (max concentration tested 10000 nM) | 0.05 | 1.25 | 3.85 | 0 | 13.2 | 29 | 35.4
11 | CNC(=O)c1nn(C)c2c1C(C)(C)Cc1cnc(Nc3ccc(N4CCN(C)CC4)cc3)nc1-2 [Milciclib] (max concentration tested 10000 nM) | 9.77 | 9.72 | 16.6 | 0.17 | 79.3 | 96 | 101
12 | Cc1csc(-c2nnc(Nc3ccc(Oc4ncccc4-c4ccnc(N)n4)cc3)c3ccccc23)c1 [AMG-900] (max concentration tested 1000 nM) | 0.8 | 1.27 | 9.1 | 0 | 19.6 | 30 | 29.8
13 | Cn1ncc(Cl)c1-c1cc(C(=O)N[C@H](CN)Cc2cccc(F)c2)sc1Cl [Afuresertib] (max concentration tested 1000 nM) | 0.07 | 0 | 1.39 | 0 | 13.3 | 1.85 | 32
14 | CCn1c(-c2nonc2N)nc2c(C#CC(C)(C)O)ncc(OC[C@H]3CCCNC3)c21 (max concentration tested 10000 nM) | 0 | 3.35 | 0 | 0 | 3.9 | 39 | -24.9
15 | CNC(=O)c1ccc(C)c(-n2c(C)cc(OCc3ccc(F)cc3F)c(Br)c2=O)c1 (max concentration tested 1000 nM) | 0 | 0 | 5.16 | 0 | 8.35 | 4 | 38.4
16 | CS(=O)(=O)c1ccc(-c2cnc(N)c(C(=O)Nc3ccccc3)n2)cc1 [VE-821] (max concentration tested 10000 nM) | 0.05 | 0 | 0 | 0 | 10.4 | 5.62 | 7.49
17 | O=C(c1ccc(F)c(F)c1Nc1ccc(I)cc1F)N1CC(O)([C@@H]2CCCCN2)C1 [Cobimetinib] (max concentration tested 1000 nM) | 4.46 | 4.02 | 0 | 0.01 | 49.3 | 69.5 | -5.92
18 | CNC(=O)c1c(F)cccc1Nc1nc(Nc2cc3c(cc2OC)CCN3C(=O)CN(C)C)nc2[nH]ccc12 (max concentration tested 2500 nM) | 13.9 | 0.22 | 11.8 | 1.53 | 59.1 | 11.8 | 66.3
19 | Nc1nc(Nc2ccc3c(c2)CC[C@@H](N2CCCC2)CC3)nn1-c1cc2c(nn1)-c1ccccc1CCC2 [BGB324] (max concentration tested 10000 nM) | 2.95 | 14.4 | 7.59 | 0 | 23.7 | 99.5 | 99.3
20 | CNc1nc(Nc2cn(C(C)(C)C#N)nc2C)ncc1C(F)(F)F [GNE-0877] (max concentration tested 1000 nM) | 2.29 | 0 | 0 | 0 | 23.4 | 5.3 | -4.9
21 | CCCCNc1ncc(C(=O)NCc2ccc(-n3ccnc3)cc2)c(NC2CCC(O)CC2)n1 (stereo not given) [UNC2881] (max concentration tested 2500 nM) | 3.51 | 0 | 3.6 | 0 | 37 | 9.68 | 38.9
22 | COc1ccc(CCc2nc3cc(-c4c(C)noc4C)ccc3n2C[C@H](C)N2CCOCC2)cc1Cl [SGC-CBP30] (max concentration tested 25000 nM) | 1.59 | 5.7 | 5.72 | 0 | 40.4 | 60.7 | 62
23 | Cc1ccc(NC(=O)c2ccc(CN3CC[C@H](N(C)C)C3)c(C(F)(F)F)c2)cc1Nc1nccc(-c2cncnc2)n1 [Bafetinib] (max concentration tested 1000 nM) | 0 | 0.33 | 1.49 | 0 | -10.6 | 16.8 | 28.5
24 | COc1cccc2c1c(O)c(C(=O)N(C)c1ccc(C(F)(F)F)cc1)c(=O)n2C [Tasquinimod] (max concentration tested 10000 nM) | 0.69 | 0 | 3.88 | 0 | 11.8 | 8.66 | 20.7
25 | CN(CC(=O)N(Cc1ccc(C2CCCCC2)cc1)c1ccc(C(=O)O)cc1)S(=O)(=O)c1c(F)c(F)c(F)c(F)c1F [SH-4-54] (max concentration tested 25000 nM) | 5.78 | 7.18 | 10.3 | 3.21 | 98.7 | 93 | 100
26 | CC(C)[C@@H](CS(=O)(=O)C(C)C)N1C(=O)[C@@](C)(CC(=O)O)C[C@H](c2cccc(Cl)c2)[C@H]1c1ccc(Cl)cc1 [AMG-232] (max concentration tested 1000 nM) | 0.61 | 0 | 8.01 | 0 | 22.4 | -6.16 | 96.6
27 | O=C(Nc1cc(Cl)cc2c1[nH]c1cnccc12)c1cccnc1 [PS-1145] (max concentration tested 25000 nM) | 0.49 | 0 | 3.62 | 0 | 13.7 | 5.78 | 16.9
28 | CCN(CC)CCCC(C)Nc1c2ccc(Cl)cc2nc2ccc(OC)cc12 (stereo not given) [Mepacrine] (max concentration tested 50000 nM) | 18.5 | 18.5 | 17.3 | 18 | 101 | 101 | 101
29 | Cc1ncc(-c2ccnc(Nc3ccc(S(C)(=O)=O)cc3)n2)n1C(C)C [AZD-5438] (max concentration tested 10000 nM) | 12.4 | 8.28 | 9.62 | 0.3 | 72 | 100 | 99.2
30 | COc1cccc(OCCCN)c1-c1cc(Nc2cnc(C#N)cn2)n[nH]1 [Prexasertib] (max concentration tested 10000 nM) | 6.05 | 29.9 | 22.2 | 0.01 | 70 | 88.6 | 76.3

From the supplement of paper PMC5579334
